Measured values taken from patent US20230119539A1, “TRACELESS LINKERS AND PROTEIN-CONJUGATES THEREOF” (Regeneron Pharmaceuticals, Inc., priority 2019, published 2023).

Experiments:
[1] = Solubility of linker-payloads and quenched linker-payloads; format: physicochemical; details: quenched linker-payloads, Table 6a
From the text: The quenched linker-payloads were water soluble and used for the pH stability test.

[2] = pH stability of quenched linker-payloads in buffers (LCMS); format: physicochemical; details: for percentage of the remaining compound: RT
Procedure: To a solution of compound (payloads or quenched-linker-payloads) in DMSO (0.2-1.0 mg/mL) was added corresponding PBS buffer (V(buffer)/V(DMSO)=5) to give test samples (pH 3, 4, 5, 6, 7.4, and 8.5, or other special pH). The test samples were incubated at RT for at least 3 days and monitored by LCMS (i.e., at 1 hr, 2 hr, 4 hr, 8 hr, and 1 day, 2 day, 3 day, 4 day, 5 day, 6 day, 7 day, 8 day, 9 day, and 21 day time points). Initial concentrations of the samples were 0.2 mg/mL (DMSO/buffer, v/v=1/5). […] The payloads and quenched linker-payloads were mostly stable at pH >5.0, 6.0, 7.4 and 8.5 after 3 days. In more acidic conditions, such as pH 1.0, the payloads or linker-payloads were easily cleaved to release D*-OH.

[3] = Solubility of quenched linker-payloads; details: Table 3c, linker-payloads quenched with taurine-PEG4-azide or CD-N3

**Q.** For CCCC1O[C@@H]2C[C@H]3[C@@H]4CCC5=CC(=O)C=C[C@]5(C)[C@H]4[C@@H](O)C[C@]3(C)[C@]2(C(=O)COCN(C)C(=O)CNC(=O)OCc2ccc(NC(=O)[C@H](CCCNC(N)=O)NC(=O)[C@@H](NC(=O)CCOCCOCCOCCOCCNC(=O)CCC(=O)N3Cc4ccccc4-c4c(nnn4CCOCCOCCOCCOCCC(=O)NCCS(=O)(=O)O)-c4ccccc43)C(C)C)cc2)O1 (stereo partly shown) [Q1L1-PII-8], which Solubility [1] is on record?
**A.** >1000 µg/mL

**Q.** And the “percentage of the remaining compound” value ([2]; DMSO, 1 Day)?
**A.** 100%

**Q.** What about the “percentage of the remaining compound” value ([2]; DMSO, 2 Day) of the same compound?
**A.** 100%

**Q.** What about the “percentage of the remaining compound” value ([2]; DMSO, 3 Day) of the same compound?
**A.** 100%

**Q.** What about the “percentage of the remaining compound” value ([2]; DMSO, 4 Day) of the same compound?
**A.** 100%

**Q.** And the “percentage of the remaining compound” value ([2]; DMSO, 7 Day)?
**A.** 100%

**Q.** What about the “percentage of the remaining compound” value ([2]; DMSO, 1 hr) of the same compound?
**A.** 100%

**Q.** What about the “percentage of the remaining compound” value ([2]; DMSO, 4 hr) of the same compound?
**A.** 100%

**Q.** And the “percentage of the remaining compound” value ([2]; pH 3.0, 1 Day)?
**A.** 93%

**Q.** What about the “percentage of the remaining compound” value ([2]; pH 3.0, 2 Day) of the same compound?
**A.** 89%

**Q.** What about the “percentage of the remaining compound” value ([2]; pH 3.0, 3 Day) of the same compound?
**A.** 84%

**Q.** And the “percentage of the remaining compound” value ([2]; pH 3.0, 4 Day)?
**A.** 79%

**Q.** And the “percentage of the remaining compound” value ([2]; pH 3.0, 7 Day)?
**A.** 65%

**Q.** What about the “percentage of the remaining compound” value ([2]; pH 3.0, 1 hr) of the same compound?
**A.** 100%

**Q.** What about the “percentage of the remaining compound” value ([2]; pH 3.0, 4 hr) of the same compound?
**A.** 100%

**Q.** What about the “percentage of the remaining compound” value ([2]; pH 4.0, 1 Day) of the same compound?
**A.** 100%

**Q.** And the “percentage of the remaining compound” value ([2]; pH 4.0, 2 Day)?
**A.** 99%

**Q.** And the “percentage of the remaining compound” value ([2]; pH 4.0, 3 Day)?
**A.** 99%

**Q.** And the “percentage of the remaining compound” value ([2]; pH 4.0, 4 Day)?
**A.** 98%

**Q.** What about the “percentage of the remaining compound” value ([2]; pH 4.0, 7 Day) of the same compound?
**A.** 96%

**Q.** And the “percentage of the remaining compound” value ([2]; pH 4.0, 1 hr)?
**A.** 100%

**Q.** What about the “percentage of the remaining compound” value ([2]; pH 4.0, 4 hr) of the same compound?
**A.** 100%

**Q.** And the “LP: percentage of linker-payloads remaining” value ([2]; pH 4.0, day 1)?
**A.** 100%

**Q.** And the “P: percentage of budesonide released from the linker-payloads” value (from here on “P: percentage of budesonide released”) ([2]; pH 4.0, day 1)?
**A.** 0%

**Q.** What about the “LP: percentage of linker-payloads remaining” value ([2]; pH 4.0, day 2) of the same compound?
**A.** 99%

**Q.** And the “P: percentage of budesonide released” value ([2]; pH 4.0, day 2)?
**A.** 0%

**Q.** And the “LP: percentage of linker-payloads remaining” value ([2]; pH 4.0, day 7)?
**A.** 96%

**Q.** And the “P: percentage of budesonide released” value ([2]; pH 4.0, day 7)?
**A.** 3%

**Q.** What about the “percentage of the remaining compound” value ([2]; pH 5.0, 1 Day) of the same compound?
**A.** 100%

**Q.** And the “percentage of the remaining compound” value ([2]; pH 5.0, 2 Day)?
**A.** 100%

**Q.** And the “percentage of the remaining compound” value ([2]; pH 5.0, 3 Day)?
**A.** 100%

**Q.** And the “percentage of the remaining compound” value ([2]; pH 5.0, 4 Day)?
**A.** 100%

**Q.** And the “percentage of the remaining compound” value ([2]; pH 5.0, 7 Day)?
**A.** 100%

**Q.** What about the “percentage of the remaining compound” value ([2]; pH 5.0, 1 hr) of the same compound?
**A.** 100%

**Q.** And the “percentage of the remaining compound” value ([2]; pH 5.0, 4 hr)?
**A.** 100%

**Q.** And the “LP: percentage of linker-payloads remaining” value ([2]; pH 5.0, day 1)?
**A.** 100%

**Q.** What about the “P: percentage of budesonide released” value ([2]; pH 5.0, day 1) of the same compound?
**A.** 0%

**Q.** What about the “LP: percentage of linker-payloads remaining” value ([2]; pH 5.0, day 2) of the same compound?
**A.** 100%

**Q.** And the “P: percentage of budesonide released” value ([2]; pH 5.0, day 2)?
**A.** 0%

**Q.** And the “LP: percentage of linker-payloads remaining” value ([2]; pH 5.0, day 7)?
**A.** 100%

**Q.** And the “P: percentage of budesonide released” value ([2]; pH 5.0, day 7)?
**A.** 0%

**Q.** And the “percentage of the remaining compound” value ([2]; pH 7.4, 1 Day)?
**A.** 100%

**Q.** And the “percentage of the remaining compound” value ([2]; pH 7.4, 2 Day)?
**A.** 100%

**Q.** And the “percentage of the remaining compound” value ([2]; pH 7.4, 3 Day)?
**A.** 100%

**Q.** And the “percentage of the remaining compound” value ([2]; pH 7.4, 4 Day)?
**A.** 100%

**Q.** And the “percentage of the remaining compound” value ([2]; pH 7.4, 7 Day)?
**A.** 100%

**Q.** And the “percentage of the remaining compound” value ([2]; pH 7.4, 1 hr)?
**A.** 100%

**Q.** And the “percentage of the remaining compound” value ([2]; pH 7.4, 4 hr)?
**A.** 100%

**Q.** And the “LP: percentage of linker-payloads remaining” value ([2]; pH 7.4, day 1)?
**A.** 100%

**Q.** What about the “P: percentage of budesonide released” value ([2]; pH 7.4, day 1) of the same compound?
**A.** 0%

**Q.** And the “LP: percentage of linker-payloads remaining” value ([2]; pH 7.4, day 2)?
**A.** 100%

**Q.** And the “P: percentage of budesonide released” value ([2]; pH 7.4, day 2)?
**A.** 0%

**Q.** And the “LP: percentage of linker-payloads remaining” value ([2]; pH 7.4, day 7)?
**A.** 100%

**Q.** What about the “P: percentage of budesonide released” value ([2]; pH 7.4, day 7) of the same compound?
**A.** 0%

**Q.** What about the “Solubility” value [3] of the same compound?
**A.** >1000 µg/mL
